Reference: ChEMBL document CHEMBL4334494, “Recent advances in the targeting of human DNA ligase I as a potential new strategy for cancer treatment” (Eur J Med Chem, 2019)

How the values were obtained:
DNA ligase 1 [1] = molecular target: T1, DNA ligase 1 (Homo sapiens, UniProt P18858); assay: Inhibition of human DNA ligase 1 using 52-mer DNA/25-mer DNA/27-mer DNA as substrate by fluorescence assay
DNA ligase 3 = molecular target: T2, DNA ligase 3 (Homo sapiens, UniProt P49916); assay: Competitive inhibition of human DNA ligase 3 using nicked DNA as substrate by high-throughput fluorescence energy transfer-based DNA joining assay
T2 sequence (P49916 whole entry): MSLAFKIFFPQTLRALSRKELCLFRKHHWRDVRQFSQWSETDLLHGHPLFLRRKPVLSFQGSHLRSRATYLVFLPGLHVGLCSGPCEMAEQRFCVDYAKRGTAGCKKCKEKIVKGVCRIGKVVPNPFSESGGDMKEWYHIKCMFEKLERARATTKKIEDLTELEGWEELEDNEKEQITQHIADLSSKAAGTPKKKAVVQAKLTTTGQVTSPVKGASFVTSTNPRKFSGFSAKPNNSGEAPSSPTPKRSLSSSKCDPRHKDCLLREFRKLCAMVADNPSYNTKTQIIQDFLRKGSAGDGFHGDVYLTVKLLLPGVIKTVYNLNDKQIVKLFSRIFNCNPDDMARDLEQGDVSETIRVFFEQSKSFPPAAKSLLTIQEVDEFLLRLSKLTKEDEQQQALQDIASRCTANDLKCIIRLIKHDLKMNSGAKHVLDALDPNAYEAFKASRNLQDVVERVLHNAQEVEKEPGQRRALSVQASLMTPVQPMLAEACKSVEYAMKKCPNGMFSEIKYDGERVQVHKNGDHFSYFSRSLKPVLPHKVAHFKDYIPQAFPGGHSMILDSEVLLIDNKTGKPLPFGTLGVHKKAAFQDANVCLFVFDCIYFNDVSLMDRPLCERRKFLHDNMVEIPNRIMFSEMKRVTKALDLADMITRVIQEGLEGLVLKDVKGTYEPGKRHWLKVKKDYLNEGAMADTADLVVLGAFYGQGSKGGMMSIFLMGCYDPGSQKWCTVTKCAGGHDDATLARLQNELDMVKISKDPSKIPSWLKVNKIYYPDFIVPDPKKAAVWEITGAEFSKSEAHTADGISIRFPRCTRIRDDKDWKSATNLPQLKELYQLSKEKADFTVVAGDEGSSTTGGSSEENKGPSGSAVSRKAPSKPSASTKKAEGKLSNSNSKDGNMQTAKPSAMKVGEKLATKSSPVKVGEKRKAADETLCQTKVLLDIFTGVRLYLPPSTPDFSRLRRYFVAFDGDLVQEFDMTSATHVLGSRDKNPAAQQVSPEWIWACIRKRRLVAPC

DNA ligase 1 [2] = molecular target: T1, DNA ligase 1; assay: Competitive inhibition of human DNA ligase 1 using nicked DNA as substrate by high-throughput fluorescence energy transfer-based DNA joining assay
HCT-116 [3] = assay: Antiproliferative activity against human HCT116 cells relative to control; assay type: functional
DNA ligase 1 [4] = molecular target: T1, DNA ligase 1; assay: Inhibition of human DNA ligase 1 at 100 uM using nicked DNA as substrate by high-throughput fluorescence energy transfer-based DNA joining assay relative to control
MDA-MB-231 [5] = assay: Antiproliferative activity against human MDA-MB-231 cells at 10 uM after 48 hrs by MTT assay relative to control; assay type: functional; conditions: MDA-MB-231, 48 h
DNA ligase 1 [6] = molecular target: T1, DNA ligase 1; assay: Inhibition of human DNA ligase 1 at 25 uM using nicked DNA as substrate after 30 mins relative to control
DNA ligase 1 [7] = molecular target: T1, DNA ligase 1; assay: Inhibition of human DNA ligase 1 expressed in Escherichia coli BL21 (DE3) cells using nicked DNA as substrate preincubated for 30 mins followed by substrate addition measured after 1 hr
DNA ligase 1 [8] = molecular target: T1, DNA ligase 1; assay: Inhibition of human DNA ligase 1 using 52-mer DNA/25-mer DNA/27-mer DNA as substrate
DNA ligase 1 [9] = molecular target: T1, DNA ligase 1; assay: Inhibition of human DNA ligase 1 at 50 uM using 52-mer DNA/25-mer DNA/27-mer DNA as substrate by fluorescence assay relative to control
4T1 = assay: Antiproliferative activity against mouse 4T1 cells after 48 hrs by MTT assay; assay type: functional, cell-based; conditions: 4T1, 48 h
DLD-1 = assay: Antiproliferative activity against human DLD1 cells after 48 hrs by MTT assay; assay type: functional, cell-based; conditions: DLD-1, 48 h
MDA-MB-231 [10] = assay: Antiproliferative activity against human MDA-MB-231 cells after 48 hrs by MTT assay; assay type: functional, cell-based; conditions: MDA-MB-231, 48 h
HT-29 = assay: Antiproliferative activity against human HT-29 cells after 48 hrs by MTT assay; assay type: functional, cell-based; conditions: HT-29, 48 h
HeLa = assay: Antiproliferative activity against human HeLa cells after 48 hrs by MTT assay; assay type: functional, cell-based
DNA ligase 1 [11] = molecular target: T1, DNA ligase 1; assay: Inhibition of human DNA ligase 1 expressed in Escherichia coli BL21DE3RP cells at 50 uM using 52-mer DNA/25-mer DNA/27-mer DNA as substrate after 30 mins by Cyanin3 dye-based fluorescence assay relative to control
HCT-116 [12] = assay: Antiproliferative activity against human HCT116 cells after 48 hrs by MTT assay; assay type: functional, cell-based; conditions: HCT-116, 48 h
HepG2 = assay: Antiproliferative activity against human HepG2 cells after 48 hrs by MTT assay; assay type: functional, cell-based; conditions: HepG2, 48 h

T1 sequence (P18858 whole entry): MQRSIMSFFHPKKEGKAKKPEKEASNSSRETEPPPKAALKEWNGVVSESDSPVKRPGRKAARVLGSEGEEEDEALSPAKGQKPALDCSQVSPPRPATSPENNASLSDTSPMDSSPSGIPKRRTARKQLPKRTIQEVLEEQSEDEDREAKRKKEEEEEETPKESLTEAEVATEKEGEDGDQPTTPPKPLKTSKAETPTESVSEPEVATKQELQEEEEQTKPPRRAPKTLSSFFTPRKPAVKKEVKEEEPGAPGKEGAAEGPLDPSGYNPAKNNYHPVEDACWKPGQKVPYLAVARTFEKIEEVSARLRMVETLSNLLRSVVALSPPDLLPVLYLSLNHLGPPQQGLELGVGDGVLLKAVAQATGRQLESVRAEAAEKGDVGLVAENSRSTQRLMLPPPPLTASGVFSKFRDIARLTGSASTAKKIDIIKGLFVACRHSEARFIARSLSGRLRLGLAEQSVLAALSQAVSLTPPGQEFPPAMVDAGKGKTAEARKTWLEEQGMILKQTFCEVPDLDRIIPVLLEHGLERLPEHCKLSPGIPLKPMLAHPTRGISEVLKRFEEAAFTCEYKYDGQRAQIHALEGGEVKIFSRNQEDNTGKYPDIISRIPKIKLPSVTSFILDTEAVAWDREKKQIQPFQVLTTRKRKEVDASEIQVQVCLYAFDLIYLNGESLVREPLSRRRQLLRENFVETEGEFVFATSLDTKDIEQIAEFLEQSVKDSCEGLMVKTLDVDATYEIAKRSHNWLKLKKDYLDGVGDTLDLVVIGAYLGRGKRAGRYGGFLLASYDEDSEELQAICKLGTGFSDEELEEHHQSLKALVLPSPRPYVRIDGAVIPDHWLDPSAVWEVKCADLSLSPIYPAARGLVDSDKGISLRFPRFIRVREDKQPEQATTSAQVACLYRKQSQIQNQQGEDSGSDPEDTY

Work on `C=C1C(=O)OC(CCCCCCCCCCCCC)C1C(=O)O` (stereo not drawn) [(+/-)-Protolichesterinic acid] yielded an IC50 (DNA ligase 1 [1]) of 18.5 µM.
`O=c1c(O)c(-c2cc(O)c(O)c(O)c2)oc2cc(O)cc(O)c12` [MYRICETIN] gave an IC50 (DNA ligase 1 [1]) of 88 µM.
Work on `Cc1c(Br)cc(NCC(=O)N/N=C/c2cc([N+](=O)[O-])ccc2O)cc1Br` yielded an IC50 (DNA ligase 3) of 10 µM, an IC50 (DNA ligase 1 [2]) of 10 µM and an Activity (HCT-116 [3]) of 70%. The inhibition (DNA ligase 1 [4]) was 78.3%.
With `CC1(C)CC[C@]2(C(=O)O)CC=C3[C@]4(C)CC[C@H]5C(C)(C)[C@@H](O)CC[C@]5(C)[C@H]4CC[C@@]3(C)[C@@H]2C1` [ALEURITOLIC ACID] the IC50 (DNA ligase 1 [1]) was 208 µM.
With `COc1cccc(OC)c1/C=C/c1cc(=O)oc2c1ccc1ccccc12` the inhibition at 10 µM (MDA-MB-231 [5]) was > 50% and the inhibition (DNA ligase 1 [6]) was < 50%.
`O=C1Nc2ccc(Cl)cc2/C1=N/Nc1cn[nH]c(=O)c1Cl` gave an IC50 (DNA ligase 1 [7]) of 14.1 µM.
In the case of `O=C1c2cc(Cl)ccc2NC(c2ccc(Cl)c(Cl)c2)c2cccn21` (stereo not drawn), the IC50 (DNA ligase 1 [8]) is reported as 15.8 µM.
In the case of `O=C1NC(=O)/C(=C/c2ccc(OCCCCCOc3cccc(C(=O)/C=C/c4ccc5c(c4)OCO5)c3)cc2)S1`, the inhibition (DNA ligase 1 [9]) is reported as 99.6%.
In the case of `CC(=O)c1ccc(NC(=O)Nc2ccc3nc(C)cc(NC(=O)c4ccccc4)c3c2)cc1`, the inhibition (DNA ligase 1 [9]) is reported as 76.2%.
In the case of `Cc1cc(NC(=O)CN2CCN(C(=O)OC(C)(C)C)CC2)c2cc(NC(=O)Nc3ccc(C)c(Cl)c3)ccc2n1`, the inhibition (DNA ligase 1 [9]) is reported as 61.1%.
`CCCCNC(=S)N1C/C(=C\c2ccc(C)cc2)C(=O)/C(=C/c2ccc(C)cc2)C1` was tested, and the IC50 (4T1) was < 10 µM, the IC50 (DLD-1) was < 10 µM and the IC50 (MDA-MB-231 [10]) was < 10 µM. For the same compound, the IC50 (HT-29) was < 10 µM, the IC50 (HeLa) was < 10 µM and the inhibition (DNA ligase 1 [11]) was > 75%. The IC50 (HCT-116 [12]) was < 10 µM and the IC50 (HepG2) was < 10 µM.
`O=C1/C(=N\Nc2cn[nH]c(=O)c2Cl)c2ccccc2N1c1ccc(Cl)cc1` was tested, and the IC50 (DNA ligase 1 [7]) was 26.5 µM.
In the case of `CCCCNC(=S)N1C/C(=C\c2ccccc2F)C(=O)/C(=C/c2ccccc2F)C1`, the IC50 (4T1) is reported as < 10 µM, the IC50 (DLD-1) is reported as < 10 µM and the IC50 (MDA-MB-231 [10]) is reported as < 10 µM. For the same compound, the IC50 (HT-29) was < 10 µM, the IC50 (HeLa) was < 10 µM and the inhibition (DNA ligase 1 [11]) was > 75%. For the same compound, the IC50 (HCT-116 [12]) was < 10 µM and the IC50 (HepG2) was < 10 µM.
In the case of `CCCCNC(=S)N1C/C(=C\c2ccccc2C)C(=O)/C(=C/c2ccccc2C)C1`, the IC50 (4T1) is reported as < 10 µM, the IC50 (DLD-1) is reported as < 10 µM and the IC50 (MDA-MB-231 [10]) is reported as < 10 µM. The IC50 (HT-29) was < 10 µM, the IC50 (HeLa) was < 10 µM and the inhibition (DNA ligase 1 [11]) was > 75%. For the same compound, the IC50 (HCT-116 [12]) was < 10 µM and the IC50 (HepG2) was < 10 µM.
With `O=C1/C(=C/c2ccc(F)cc2)CN(C(=S)NCCc2ccccc2)C/C1=C\c1ccc(F)cc1` the IC50 (4T1) was < 10 µM, the IC50 (DLD-1) was < 10 µM and the IC50 (MDA-MB-231 [10]) was < 10 µM. For the same compound, the IC50 (HT-29) was < 10 µM, the IC50 (HeLa) was < 10 µM and the inhibition (DNA ligase 1 [11]) was > 75%. The IC50 (HCT-116 [12]) was < 10 µM and the IC50 (HepG2) was < 10 µM.
With `Cc1ccc(N2C(=O)/C(=N\Nc3cn[nH]c(=O)c3Cl)c3ccccc32)cc1` the IC50 (DNA ligase 1 [7]) was 14.1 µM.
`O=C1c2cc(Cl)ccc2NC(c2ccc(Br)cc2)c2cccn21` (stereo not drawn) showed an IC50 (DNA ligase 1 [8]) of 23.1 µM.
`COc1ccc(N2C(=O)C3C4C=CC(CNC(=S)Nc5ccc(OC)cc5[N+](=O)[O-])(O4)C3C2=O)cc1` (stereo not drawn) showed an inhibition (DNA ligase 1 [9]) of 65%.
Compound `O=C1/C(=N\Nc2cn[nH]c(=O)c2Cl)c2cc(Cl)ccc2N1c1ccc(Cl)cc1` has an IC50 (DNA ligase 1 [7]) of 14.1 µM.
`COc1cc([N+](=O)[O-])ccc1NC(=S)NCC12C=CC(O1)C1C(=O)N(c3ccc(C)cc3)C(=O)C12` (stereo not drawn) gave an inhibition (DNA ligase 1 [9]) of 98.2%.
`COc1cc2c[n+](C)c3c4cc5c(cc4ccc3c2cc1OC)OCO5` [NITIDINE CHLORIDE] was tested, and the IC50 (DNA ligase 1 [1]) was 65.1 µM.
